Earlier results on two compounds are cited in patent US7429577B2, “Augmentation of atypical antipsychotic agent pharmacotherapy with chromium supplementation” (priority 2002, dated 2008).

The conditions of series [1]: olanzapine treatment of patients.
The conditions of series [2]: humans, in particular subjects with plasma cholesterol above the 200 μg/ml level.
For series [3] the following is noted: obese Caucasian patients with type-II diabetes receiving sulphonylurea and metformin.
For series [4] the following is noted: healthy volunteers, 200 μg chromium picolinate per day.

As to `Cc1cc2c(s1)Nc1ccccc1N=C2N1CCN(C)CC1` [olanzapine], in series [1], the “levels of insulin, leptin, blood lipids; insulin resistance” value was “elevated levels of insulin, leptin, and blood lipids, as well as insulin resistance”.

chromium picolinate: the blood lipids entry in series [2] is given as “efficacious in lowering blood lipids”. In addition, the “fasting insulin levels and glucose control” value in series [3] is reported as “lowering fasting insulin levels without impairing glucose control”. For the same compound, in series [4], the “LDL cholesterol decreased by” value is reported as 11%, the “fasting blood glucose decreased by” value is given as 24%, the “glycosylated hemoglobin decreased by” value is 19% and the “total cholesterol decreased by” value is given as 13%.
